Test [1] concerns poly(ADP-ribose) polymerase 2 (PARP2). Put plainly: PARP2 auto-poly(ADP-ribosyl)ation with [32P]-NAD+. Type of test: biochemical, human. The settings on record: compound 500 μM, PARP2 600 nM, 0.6 mM [32P]-NAD+, 5 min, 37 °C; mean ± SD. The source says:
(§1) Recombinant human proteins tyrosyl-DNA phosphodiesterase 1 (TDP1) and tyrosyl-DNA phosphodiesterase 2 (TDP2) were expressed in the E. coli system, poly(ADP-ribose) polymerase 1 (PARP1) and poly(ADP-ribose) polymerase 2 (PARP2) were expressed in insect cells using a baculovirus expression system and purified as described in (Sukhanova et al., 2004; Sherstyuk et al., 2019; Dyrkheeva et al., 2020, 2021).
(§2) Determination of PARP1 and PARP2 activity. For determination of PARP1 and PARP2 enzyme activity in the presence and absence of test compounds, radiolabeled [32P]-NAD⁺ was synthesized from α-[32P]-ATP according to the protocol (Sherstyuk et al., 2019). The auto-poly(ADPribosyl) ation reaction was performed in buffer for PARP1: 50 mM Tris-HCl, pH 8.0, 10 mM MgCl2, 150 mM NaCl, and 7 mM β-mercaptoethanol, as well as 2 A260 units/ml activated DNA, 0.3 mM [32P]-NAD⁺ at 37 °C. The reaction was initiated by addition of PARP1 to 200 nM and carried out for 2 min
(§3) The buffer for PARP2 contained: 50 mM Tris-HCl, pH 8.0, 3 mM spermine, 150 mM NaCl, and 7 mM β-mercaptoethanol, 2 A260 units/ml activated DNA, 0.6 mM [32P]-NAD⁺ at 37 °C. The reaction was initiated by addition of PARP2 to 600 nM, and the reaction mixtures were incubated for 5 min. The reaction was stopped by placing 5 μl aliquots on Whatman 1 paper filters impregnated with 5 % trichloroacetic acid (TCA). The filters were washed with 5 % TCA four times and air-dried after removal of TCA with 90 % ethanol. The incorporation of the radioactive label into the reaction product was calculated using a Typhoon FLA 9500 scanner (GE Healthcare, Chicago, Illinois, USA). At least three independent experiments were performed.

Test [2] has as its target T1, tyrosyl-DNA phosphodiesterase 1 (TDP1) (Homo sapiens, UniProt Q9NUW8).
T1 construct: made in house; host or cells: E. coli
In words: Real-time fluorescent detection of TDP1 activity (BHQ1 cleavage from 3′-end of single-stranded FAM oligonucleotide). The format is biochemical. The settings on record: recombinant TDP1 1.5 nM, 50 nM single-stranded oligonucleotide, 26 °C; mean ± SD, at least three replicates. As to the method:
as §1
Determination of TDP1 activity. The reaction mixture (200 μl) for real-time fluorescent detection of TDP1 enzyme activity (Zakharenko et al., 2015) contained TDP1 reaction buffer (50 mM Tris-HCl, pH 8.0, 50 mM NaCl, and 7 mM β-mercaptoethanol), 50 nM oligonucleotide 5′-FAM-AAC GTC AGG GTC TTC C-BHQ1-3′, the test compound at various concentrations, and TDP1 at a final concentration of 1.5 nM. The reaction mixtures were incubated at a constant temperature of 26 °C in a POLARstar OPTIMA microplate fluorometer (BMG LABTECH, GmbH, Ortenberg, Germany). Fluorescence intensity (Ex485/Em520 nm) was measured every minute for 10 min. Mean values of half-maximal inhibitory concentration (IC50 – the concentration of the compound that inhibited 50 % of enzyme activity compared to the untreated control well containing only enzyme and substrate) were determined using a dose-response curve of the fluorescence signal level versus inhibitor concentration and calculated using MARS Data Analysis 2.0 (BMG LABTECH). Kinetic curves were obtained in at least three independent experiments and statistically processed in OriginPro 8.6.0 (OriginLab, Northampton, Massachusetts, USA).
The third group of compounds includes derivatives of the monomeric compound MB2Py(Ac), which is an isosteric analog of MB3, due to the fact that the pyrrolecarboxamide fragment contained in its structure can act as a hydrogen atom donor at the carboxamide nitrogen for hydrogen bond formation, in a position analogous to benzimidazole. Dimeric derivatives are represented by the DB2Py(n) series containing n-alkyldicarboxylic acids as a linker. This series is represented by a set of compounds containing 1, 3, 4, 5, 7, 9, and 11 methylene units, which allowed for a more accurate assessment of the dependence of the inhibitory activity of compounds on spacer length. The DB2Py(n) series differs from the DB3(n) series by the presence, in addition to the bisbenzimidazole structure, of a pyrrolecarboxamide structure, which is a fragment of the AT-specific antibiotic netropsin.Using the real-time fluorescence analysis method, halfmaximal inhibitory concentration (IC50) values of the studied compounds (see the Table) were obtained in the reaction of BHQ1 cleavage from the 3′-end of the oligonucleotide by TDP1, which led to an increase in FAM fluorescence at the 5′-end of the chain (Zakharenko et al., 2015). It should also be noted that a single-stranded oligonucleotide was used as substrate to exclude the binding of dimeric bisbenzimidazoles as minor-groove ligands to the DNA substrate and direct their action toward the enzymatic target.

Test [3] deals with T2, poly(ADP-ribose) polymerase 1 (PARP1) (Homo sapiens, UniProt P09874).
T2 construct: made in house; host or cells: insect cells (baculovirus expression system)
Put plainly: PARP1 auto-poly(ADP-ribosyl)ation with [32P]-NAD+. The format is biochemical. The settings on record: compound 500 μM, PARP1 200 nM, 0.3 mM [32P]-NAD+, 2 min, 37 °C; mean ± SD; read-out: PARP1 % of residual activity (500 μM).
From the text: as §1, §2, §3

Test [4] deals with T3, tyrosyl-DNA phosphodiesterase 2 (TDP2) (Homo sapiens, UniProt O95551).
T3 construct: made in house; host or cells: E. coli
T3 sequence (O95551 1-362): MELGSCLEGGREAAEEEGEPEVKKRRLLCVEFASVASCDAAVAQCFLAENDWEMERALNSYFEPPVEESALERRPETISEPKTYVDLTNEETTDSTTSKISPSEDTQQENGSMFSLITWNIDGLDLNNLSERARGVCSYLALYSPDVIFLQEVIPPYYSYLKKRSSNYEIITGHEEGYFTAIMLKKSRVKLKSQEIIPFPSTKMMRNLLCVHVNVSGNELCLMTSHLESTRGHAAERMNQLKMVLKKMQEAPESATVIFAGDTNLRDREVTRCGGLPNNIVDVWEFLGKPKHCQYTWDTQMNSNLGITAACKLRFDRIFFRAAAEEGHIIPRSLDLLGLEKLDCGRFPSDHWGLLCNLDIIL
Put plainly: TDP2 activity, removal of 5′-tyrosine from oligonucleotide substrate, denaturing PAGE. The settings on record: inhibitor 500 μM, TDP2 200 nM, substrate 100 nM, 10 min, 37 °C; mean ± SD; read-out: TDP2 % of residual activity (500 μM). The format is biochemical.
From the text: as §1
Determination of TDP2 activity. For determination of TDP2 enzyme activity, an oligonucleotide 5′-tyrosine-AAC GTC AGG GTC TTC C-FAM-3′ containing a 6-FAM label at the 3′-end and an L-tyrosine residue attached via the phenolic OH group to the 5′-terminal phosphate was used as substrate, synthesized at the Russian-French-Japanese Laboratory of Bionanotechnology of Novosibirsk State University as described in (Dyrkheeva et al., 2021). The substrate at a concentration of 100 nM was incubated with TDP2 at a concentration of 200 nM in the absence or presence of inhibitor (500 μM) for 10 min at 37 °C in buffer containing 50 mM Tris-HCl, pH 8.0, 50 mM NaCl, 7 mM β-mercaptoethanol (Dyrkheeva et al., 2021). The reaction was stopped by addition of PAGE loading buffer (TBE, 10 % formamide, 7 M urea, 20 mM EDTA, 0.1 % xylene cyanol, and 0.1 % bromophenol blue). The samples were then heated at 90 °C for 5 min. The enzymatic reaction products were separated by electrophoresis in 20 % denaturing PAGE with 7 M urea at an acrylamide to bisacrylamide ratio of 19:1. A high-resolution Typhoon FLA 9500 laser scanner (GE Healthcare, Chicago, Illinois, USA) was used for gel scanning and visualization, and the data were analyzed using QuantityOne 4.6.7 software (Bio- Rad Laboratories, Inc., Hercules, California, USA). At least three independent experiments were performed, and statistical processing was carried out using OriginPro 8.6.0 (OriginLab, Northampton, Massachusetts, USA).
To study the effect of the studied compounds on TDP2 activity, we tested the ability of this enzyme to remove the tyrosine residue from the 5′-end of the oligonucleotide substrate in the absence and presence of inhibitors, as described in (Dyrkheeva et al., 2021).

A value given as a limit tells only on which side of the number the result lay.

T1 sequence (Q9NUW8 whole entry): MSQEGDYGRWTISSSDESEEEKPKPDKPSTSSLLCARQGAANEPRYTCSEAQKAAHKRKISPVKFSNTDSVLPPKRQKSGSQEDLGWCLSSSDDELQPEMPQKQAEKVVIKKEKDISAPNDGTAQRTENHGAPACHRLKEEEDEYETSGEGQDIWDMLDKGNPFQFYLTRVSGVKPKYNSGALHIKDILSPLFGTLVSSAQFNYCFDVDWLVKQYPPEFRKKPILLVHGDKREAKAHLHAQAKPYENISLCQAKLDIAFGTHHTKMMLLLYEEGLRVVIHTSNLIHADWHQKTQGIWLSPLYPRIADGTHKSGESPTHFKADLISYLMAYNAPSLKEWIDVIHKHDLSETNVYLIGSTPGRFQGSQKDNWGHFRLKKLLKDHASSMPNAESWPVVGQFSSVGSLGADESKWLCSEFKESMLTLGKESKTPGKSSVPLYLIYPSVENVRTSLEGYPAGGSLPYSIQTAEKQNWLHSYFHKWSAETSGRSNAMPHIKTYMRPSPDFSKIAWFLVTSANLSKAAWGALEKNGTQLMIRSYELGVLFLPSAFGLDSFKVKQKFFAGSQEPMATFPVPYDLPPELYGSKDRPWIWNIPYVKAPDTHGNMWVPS
T2 sequence (P09874 whole entry): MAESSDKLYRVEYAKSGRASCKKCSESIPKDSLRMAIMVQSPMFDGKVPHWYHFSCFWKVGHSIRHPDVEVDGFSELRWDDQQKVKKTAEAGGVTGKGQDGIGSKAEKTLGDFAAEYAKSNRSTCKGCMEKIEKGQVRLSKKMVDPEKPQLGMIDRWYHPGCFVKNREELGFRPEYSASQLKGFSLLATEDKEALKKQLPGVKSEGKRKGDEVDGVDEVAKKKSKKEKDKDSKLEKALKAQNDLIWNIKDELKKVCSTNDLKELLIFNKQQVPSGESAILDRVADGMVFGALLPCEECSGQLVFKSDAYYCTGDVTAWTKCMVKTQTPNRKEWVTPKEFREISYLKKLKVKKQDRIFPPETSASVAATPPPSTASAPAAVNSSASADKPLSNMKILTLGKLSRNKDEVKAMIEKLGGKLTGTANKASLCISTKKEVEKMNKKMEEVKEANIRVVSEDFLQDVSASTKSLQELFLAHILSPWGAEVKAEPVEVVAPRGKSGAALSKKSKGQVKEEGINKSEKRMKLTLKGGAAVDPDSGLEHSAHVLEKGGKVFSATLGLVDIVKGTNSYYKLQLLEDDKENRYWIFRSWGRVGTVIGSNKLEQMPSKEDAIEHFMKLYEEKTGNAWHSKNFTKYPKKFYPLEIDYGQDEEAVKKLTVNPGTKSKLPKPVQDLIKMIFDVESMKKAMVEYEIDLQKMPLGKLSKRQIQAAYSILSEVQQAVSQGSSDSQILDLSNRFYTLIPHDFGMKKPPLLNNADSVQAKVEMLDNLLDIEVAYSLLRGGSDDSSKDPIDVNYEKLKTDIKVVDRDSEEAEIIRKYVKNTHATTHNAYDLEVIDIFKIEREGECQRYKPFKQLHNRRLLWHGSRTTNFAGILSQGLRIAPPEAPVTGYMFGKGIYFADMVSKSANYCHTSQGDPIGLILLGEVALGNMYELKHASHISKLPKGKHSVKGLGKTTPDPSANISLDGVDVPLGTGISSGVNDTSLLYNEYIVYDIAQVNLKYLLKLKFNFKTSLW

As to `CN1CCN(c2ccc3nc(-c4ccc5nc(-c6ccc7nc(CNC(=O)CC(=O)NCc8nc9ccc(-c%10nc%11ccc(-c%12nc%13ccc(N%14CCN(C)CC%14)cc%13[nH]%12)cc%11[nH]%10)cc9[nH]8)[nH]c7c6)[nH]c5c4)[nH]c3c2)CC1` [DB3(1)], in test [1], the “PARP2 % of residual activity (500 μM)” value was ~ 100%. Moreover, the IC50 (in general, the point on the concentration scale where inhibition reaches its midpoint) in test [2] is above 50000 nM. Besides, the remaining activity at 500 µM in test [3] stood at 55 ± 13%; in test [4], 70 ± 6%.
The like results for `CCCn1cc(NC(=O)CCCCCCCC(=O)Nc2cc(-c3nc4ccc(-c5nc6ccc(N7CCN(C)CC7)cc6[nH]5)cc4[nH]3)n(CCC)c2)cc1-c1nc2ccc(-c3nc4ccc(N5CCN(C)CC5)cc4[nH]3)cc2[nH]1` [DB2Py(7)] were, in that order, ~ 100%, 280 ± 10 nM, around 100% and around 100%.
For `CCCn1cc(NC(=O)CCCCCCCCCCCC(=O)Nc2cc(-c3nc4ccc(-c5nc6ccc(N7CCN(C)CC7)cc6[nH]5)cc4[nH]3)n(CCC)c2)cc1-c1nc2ccc(-c3nc4ccc(N5CCN(C)CC5)cc4[nH]3)cc2[nH]1` [DB2Py(11)], in that order: ~ 100%, 900 ± 100 nM, around 100% and around 100%.
For `CN1CCN(c2ccc3nc(-c4ccc5nc(-c6ccc7nc(CNC(=O)CCCCCCCCCC(=O)NCc8nc9ccc(-c%10nc%11ccc(-c%12nc%13ccc(N%14CCN(C)CC%14)cc%13[nH]%12)cc%11[nH]%10)cc9[nH]8)[nH]c7c6)[nH]c5c4)[nH]c3c2)CC1` [DB3(9)], in that order: ~ 100%, above 50000 nM, around 100% and around 100%.
For `CN1CCN(c2ccc3nc(-c4ccc5nc(-c6ccc7nc(CNC(=O)CCN8CCN(CCC(=O)NCc9nc%10ccc(-c%11nc%12ccc(-c%13nc%14ccc(N%15CCN(C)CC%15)cc%14[nH]%13)cc%12[nH]%11)cc%10[nH]9)CC8)[nH]c7c6)[nH]c5c4)[nH]c3c2)CC1` [DB3P(2)], in test [1], the “PARP2 % of residual activity (500 μM)” value is given as ~ 100%. Besides, in test [2], the IC50 was 110 ± 10 nM. The remaining activity at 500 µM in test [3] was 40 ± 5%; in test [4] it was around 100%.
In the case of `CCCn1cc(NC(=O)CCCCCCCCCC(=O)Nc2cc(-c3nc4ccc(-c5nc6ccc(N7CCN(C)CC7)cc6[nH]5)cc4[nH]3)n(CCC)c2)cc1-c1nc2ccc(-c3nc4ccc(N5CCN(C)CC5)cc4[nH]3)cc2[nH]1` [DB2Py(9)], in test [1], the “PARP2 % of residual activity (500 μM)” value is recorded as ~ 100%. Also, in test [2], the 50% inhibitory concentration (IC50) came to 300 ± 80 nM. The remaining activity at 500 µM in test [3] and in test [4] was around 100% each time.
As for `CCCn1cc(NC(=O)CCCCCC(=O)Nc2cc(-c3nc4ccc(-c5nc6ccc(N7CCN(C)CC7)cc6[nH]5)cc4[nH]3)n(CCC)c2)cc1-c1nc2ccc(-c3nc4ccc(N5CCN(C)CC5)cc4[nH]3)cc2[nH]1` [DB2Py(5)], the “PARP2 % of residual activity (500 μM)” value in test [1] is ~ 100%. Also, in test [2], the IC50 stood at 350 ± 130 nM. The remaining activity at 500 µM in test [3] and in test [4] was around 100% in each case.
As for `CC(=O)NCc1nc2ccc(-c3nc4ccc(N5CCN(C)CC5)cc4[nH]3)cc2[nH]1` [MB2(Ac)], the “PARP2 % of residual activity (500 μM)” value in test [1] is recorded as ~ 100%. In test [2], the half-inhibitory concentration (IC50) was determined as 1500 ± 500 nM. Moreover, the remaining activity at 500 µM in test [3] and in test [4] was around 100% each time.
As to `CN1CCN(c2ccc3nc(-c4ccc5nc(CNC(=O)CCCN6CCN(CCCC(=O)NCc7nc8ccc(-c9nc%10ccc(N%11CCN(C)CC%11)cc%10[nH]9)cc8[nH]7)CC6)[nH]c5c4)[nH]c3c2)CC1` [DB2P(3)], the “PARP2 % of residual activity (500 μM)” value in test [1] was determined as 64 ± 16%. Besides, in test [2], the IC50 was 4100 ± 600 nM. The figures for the remaining activity at 500 µM in test [3] and in test [4] were 37 ± 10% and 36 ± 7%, respectively.
Take `CN1CCN(c2ccc3nc(-c4ccc5nc(CNC(=O)CN6CCN(CC(=O)NCc7nc8ccc(-c9nc%10ccc(N%11CCN(C)CC%11)cc%10[nH]9)cc8[nH]7)CC6)[nH]c5c4)[nH]c3c2)CC1` [DB2P(1)]: the “PARP2 % of residual activity (500 μM)” value in test [1] is ~ 100%. Also, the IC50 in test [2] came to 6000 ± 4000 nM. For the same molecule, the results for the remaining activity at 500 µM in test [3] and in test [4] were 57 ± 16% and 66 ± 7%, respectively.
For `CN1CCN(c2ccc3nc(-c4ccc5nc(CN)[nH]c5c4)[nH]c3c2)CC1` [MB2], in that order: ~ 100%, 2000 ± 1000 nM, around 100% and around 100%.

Values taken from publication PMC12799362, “The effect of dimeric bisbenzimidazoles on the activity of DNA repair enzymes TDP1, TDP2, PARP1 and PARP2” (Vavilov Journal of Genetics and Breeding, 2025).
